According to patent US20250144223A1, “PROTEIN DEGRADATION COMPOUND BASED ON NAMPT TARGET PROTEIN AND APPLICATION THEREOF” (GLUETACS THERAPEUTICS (SHANGHAI) CO., LTD., priority 2021, published 2025):

Columns and labels:
HL60 tumor cells = experiment: In vitro cytotoxicity assay against tumor cells (DAPI staining, flow cytometry); type: cell-based; settings: 10 nM, 4th day
Procedure: (§1) The tumor cells used herein were cultured in a cell culture medium at 37° C. in an incubator with 5% CO2, where the cell culture medium was supplemented with 10% FBS, as well as penicillin at a final concentration of 100 U/mL and streptomycin at a final concentration of 100 μg/mL. Prior to experimentation, all cells used were identified as correct cells by STR cells, and were negative for mycoplasma through routine testing.
(§2) MOLT4 and HL60 tumor cells were seeded separately in 12-well plates containing 1 mL of RPMI1640 medium, with a cell seeding density of 0.5×10^6 cells/mL. On the second day, the parent inhibitor FK866 and the compounds SIAIS630120 and SIAIS630121 of the present disclosure were individually dissolved in DMSO to obtain stock solutions of the respective compounds at a concentration of 10 μM. Subsequently, 1 μL of the 10 μM compound stock solution was added to 1 mL of cell culture medium to achieve a final concentration of 10 nM. The cells were treated continuously for 4 days, and cell viability was measured once daily during this period. Specifically, cells were sampled once a day, adjusted to a concentration of 1×10^6/mL using a cell staining buffer, stained with 4′,6-diamidino-2-phenylindole dihydrochloride (DAPI) (1:250), and then analyzed with a flow cytometer. Initially, the cells were gated based on differences in cell size, followed by DAPI staining to gate for dead cells. Finally, the cytotoxic efficiency was assessed by calculating the DAPI-positive ratio.

[1] = clinical trial results; cited from earlier work
Jurkat = experiment: CellTiter-Glo Luminescent Cell Viability Assay, half inhibitory concentration (IC50) on tumor cell proliferation; type: cell-based; settings: Homo sapiens, Jurkat cells, 72 h treatment
How it was run: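 Jurkat cells seeded at 20,000 cells/well in serum-containing RPMI1640, treated after 24 h with serially diluted compound for 72 h at 37 °C, 5% CO2. Viability read by CellTiter-Glo luminescence; IC50 calculated from growth-inhibition curves.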

[2] = target: T1, extracellular NAMPT (eNAMPT) (Homo sapiens, UniProt P43490); experiment: Western blot, eNAMPT protein degradation in HL60 and MOLT4 cell lines; type: cell-based
T1 construct: degradation effects of compounds SIAIS630120 and SIAIS630121 of the present disclosure on eNAMPT protein in HL60 and MOLT4 cell lines; endogenous in cells; host or cells: HL60, MOLT4
Procedure: (§3) The tumor cells used herein were cultured in a cell culture medium at 37° C. in an incubator with 5% CO2, where the cell culture medium was supplemented with 10% FBS, as well as penicillin at a final concentration of 100 U/mL and streptomycin at a final concentration of 100 μg/mL.
(§4) Tumor cells were seeded at a specific cell density in a 6-well plate containing 2 mL of RPMI1640/DMEM medium. For SW620, HT29, MCF-7, and BEL7404 cells, the seeding density was 1×10^6 cells per well, respectively; for MOLT4, Jurkat, and HL60 cells, the seeding density was 0.5×10^6 cells/mL. […] After 24 hours of compound treatment, the supernatant was removed, and cells were washed with PBS. The cells were then placed on ice and treated with protein lysis buffer containing protease and phosphatase inhibitors. The lysate was centrifuged at 12,000 RPM for 15 minutes at 4° C., and the supernatant was collected. Equal amounts of protein were mixed with 5×SDS, and after denaturation at 95° C. for 5 minutes, the samples were either frozen at −20° C. or subjected to direct protein electrophoresis. SDS-PAGE was performed using equal amounts of protein, and proteins were transferred to a nitrocellulose membrane at 95 V and 4° C. for 90 minutes. After membrane transfer, the membrane was blocked with TBST containing 5% skim milk powder (purchased from Beijing Cowin Bioscience Co., Ltd.) at room temperature for 1 hour. […]

[3] = target: T2, intracellular NAMPT (iNAMPT) (Homo sapiens, UniProt P43490); experiment: Western blot, NAMPT protein degradation (DC50) in SW620, HT29, MCF-7, BEL7404, MOLT4, Jurkat and HL60 cells; type: cell-based; settings: tumor cells, 24 h
T2 construct: assess the expression levels of NAMPT protein in tumor cells treated with the compounds of the present disclosure; endogenous in cells; host or cells: SW620, HT29, MCF-7, BEL7404, MOLT4, Jurkat, HL60
Procedure: as §3, §4

hematological tumors = settings: animal models; cited from earlier work
MOLT4 tumor cells = experiment: In vitro cytotoxicity assay against tumor cells (DAPI staining, flow cytometry); type: cell-based; settings: 10 nM, 4th day; for cytotoxicity, more effective than FK866: difference to FK866
Procedure: as §1, §2

T1 sequence (P43490 whole entry): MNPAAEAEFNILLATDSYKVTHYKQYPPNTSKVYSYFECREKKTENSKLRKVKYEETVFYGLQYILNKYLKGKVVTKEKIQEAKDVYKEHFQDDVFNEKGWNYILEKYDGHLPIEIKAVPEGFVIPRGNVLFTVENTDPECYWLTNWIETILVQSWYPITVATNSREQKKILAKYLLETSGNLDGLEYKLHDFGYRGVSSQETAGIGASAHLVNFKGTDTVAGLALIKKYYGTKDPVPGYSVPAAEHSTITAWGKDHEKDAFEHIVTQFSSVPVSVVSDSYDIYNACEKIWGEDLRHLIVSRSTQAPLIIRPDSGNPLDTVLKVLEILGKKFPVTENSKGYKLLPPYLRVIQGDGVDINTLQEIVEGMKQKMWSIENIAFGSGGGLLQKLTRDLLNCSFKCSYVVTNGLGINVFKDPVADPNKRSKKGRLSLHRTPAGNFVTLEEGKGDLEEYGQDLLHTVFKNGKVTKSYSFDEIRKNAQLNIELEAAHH
T2 sequence (P43490 whole entry): as above

| SMILES | cytotoxic effect (DAPI-positive ratio) (HL60 tumor cells) | toxicities in clinical trial [1] | IC50 (Jurkat) | degradation of extracellular NAMPT (eNAMPT) protein ([2]; 24 h, Western blot) | eNAMPT protein level compared to the DMSO control group ([2]; MOLT4 cells, 10 nM, FIG. 5) | degradation of intracellular NAMPT (iNAMPT) protein [3] | long-term survival of mice (hematological tumors) | cytotoxicity (DAPI-positive ratio) (MOLT4 tumor cells) | cytotoxicity, more effective than FK866 (MOLT4 tumor cells) |
| --- | --- | --- | --- | --- | --- | --- | --- | --- | --- |
| O=C(/C=C/c1cccnc1)NCCCCC1CCN(C(=O)c2ccccc2)CC1 [FK866] | less than 40% | dose-limiting toxicities such as thrombocytopenia | 0.635 nM | cannot degrade iNAMPT and eNAMPT proteins | higher levels of eNAMPT protein | cannot degrade iNAMPT and eNAMPT proteins | 80% |  |  |
| O=C(/C=C/c1cccnc1)NCCCCC1CCN(C(=O)c2ccc(N3CCN(CCCCCC#Cc4cccc5c4CN(C4CCC(=O)NC4=O)C5=O)CC3)cc2)CC1 (stereo not drawn) [SIAIS630120, (E)-N-(4-(1-(4-(4-(7-(2-(2,6-dioxopiperidin-3-yl)-1-oxoisoindolin-4-yl)hept-6-yn-1-yl)piperazin-1-yl)benzoyl)piperidin-4-yl)butyl)-3-(pyridin-3-yl)acrylamide] | 95% |  | 6.24 nM |  |  |  |  | approximately 50% | 20% |
| O=C(/C=C/c1cccnc1)NCCCCC1CCN(C(=O)c2ccc(N3CCN(CCCCCCC#Cc4cccc5c4CN(C4CCC(=O)NC4=O)C5=O)CC3)cc2)CC1 (stereo not drawn) [SIAIS630121, (E)-N-(4-(1-(4-(4-(8-(2-(2,6-dioxopiperidin-3-yl)-1-oxoisoindolin-4-yl)oct-7-yn-1-yl)piperazin-1-yl)benzoyl)piperidin-4-yl)butyl)-3-(pyridin-3-yl)acrylamide] | 95% |  | 4.83 nM |  |  |  |  | approximately 50% | 20% |
